IC50 data for 28 compounds are collected here from ChEMBL document CHEMBL1140251, “Rhodanine derivatives as inhibitors of JSP-1” (Bioorg Med Chem Lett, 2005).

pIC50: −log10 of the molar value.

The target of assay [1] is T1, Dual specificity protein phosphatase 22 (Homo sapiens, UniProt Q9NRW4).
T1 sequence (Q9NRW4 whole entry): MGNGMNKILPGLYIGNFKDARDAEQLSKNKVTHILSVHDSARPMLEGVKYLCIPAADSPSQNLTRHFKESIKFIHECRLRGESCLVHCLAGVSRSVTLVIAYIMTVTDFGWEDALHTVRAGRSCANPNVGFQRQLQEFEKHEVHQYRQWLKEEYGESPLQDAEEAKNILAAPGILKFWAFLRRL
In words: Inhibition of JNK-stimulating phosphatase-1 (JSP-1).

In assay [2] the target is Dual specificity protein phosphatase 3 (Homo sapiens, UniProt P51452). In words: In vitro inhibitory concentration against VH1-related (VHR) phosphatase.
Chain of Dual specificity protein phosphatase 3 (P51452 whole entry): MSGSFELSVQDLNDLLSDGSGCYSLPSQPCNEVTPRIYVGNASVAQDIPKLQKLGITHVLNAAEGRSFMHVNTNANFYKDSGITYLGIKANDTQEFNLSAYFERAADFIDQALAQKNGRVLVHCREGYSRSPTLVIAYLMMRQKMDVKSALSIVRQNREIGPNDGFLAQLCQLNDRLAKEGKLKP

With `O=C1/C(=C/c2ccccc2)SC(=S)N1c1ccc(CP(=O)(O)O)cc1`, the pIC50 in assay [1] was 5.00; in assay [2] it was < 3.70.

Consider `O=C(O)Cc1cccc(N2C(=O)/C(=C/c3ccccc3)SC2=S)c1`, for which the pIC50 in assay [1] is 4.70; in assay [2] it was < 3.70. As to `O=C1/C(=C/c2ccccc2)SC(=S)N1c1ccc(S(=O)(=O)O)cc1`, the pIC50 was 4.96 in assay [1] and < 3.70 in assay [2]. In the same order, the values of `Cc1cc(C(=O)O)ccc1N1C(=O)/C(=C/c2ccccc2)SC1=S` are 4.18 and < 3.70. Consider `O=C(O)c1ccc(N2C(=O)/C(=C/c3ccc(F)cc3)OC2=S)cc1`, for which the negative logarithm of the IC50 (pIC50) in assay [1] is < 3.70. Consider `COc1ccc(/C=C2\SC(=S)N(c3cccc(C(=O)O)c3)C2=O)cc1`, for which the pIC50 in assay [1] was 4.59; in assay [2] it was < 3.70.

In the case of `O=C(O)c1ccc(N2C(=O)/C(=C/c3ccc(F)cc3)NC2=S)cc1`, in assay [1], the pIC50 is < 3.70.

Regarding `O=C(O)c1ccc(N2C(=O)S/C(=C\c3ccc(F)cc3)C2=O)cc1`, the pIC50 in assay [1] was < 3.70. For `O=C(O)c1ccccc1N1C(=O)/C(=C/c2ccccc2)SC1=S`, the pIC50 in assay [1] and in assay [2] was < 3.70 throughout. `Cc1ccc(/C=C2\SC(=S)N(c3cccc(C(=O)O)c3)C2=O)cc1`: the pIC50 in assay [1] was 4.80; in assay [2], 3.91.

For the compound `O=C(O)c1cc(C(=O)O)cc(N2C(=O)/C(=C/c3ccccc3)SC2=S)c1`, the pIC50 in assay [1] is 3.99; in assay [2], < 3.70.

`O=C(O)c1ccc(N2C(=O)/C(=C/c3ccccc3)SC2=S)cc1O`: the figures for the pIC50 in assay [1] and in assay [2] were 4.89 and 4.35, respectively. In the same order, the values of `O=C(O)c1ccc(/C=C2\SC(=S)N(c3cccc(C(=O)O)c3)C2=O)cc1` are < 3.70 and < 3.70.

Consider `O=C(O)c1ccc(N2C(=O)/C(=C/c3ccccc3)SC2=S)cc1`, for which the pIC50 in assay [1] was 4.74; in assay [2], < 3.70. Turning to `O=C(O)c1cccc(N2C(=O)/C(=C/c3ccc(O)cc3)SC2=S)c1`, the pIC50 in assay [1] is 3.80; in assay [2], < 3.70.

As for `O=C(O)c1ccc(N2C(=O)/C(=C/c3ccc(F)cc3)SC2=S)cc1`, in assay [1], the pIC50 was 5.38. As for `O=C(O)c1cc(N2C(=O)/C(=C/c3ccccc3)SC2=S)ccc1O`, the pIC50 was 4.89 in assay [1] and 3.89 in assay [2].

For `CN1C(=S)N(c2ccc(C(=O)O)cc2)C(=O)/C1=C/c1ccc(F)cc1`, in assay [1], the pIC50 is < 3.70. Turning to `CC/C=C1\SC(=S)N(c2cccc(C(=O)O)c2)C1=O`, the figures for the pIC50 in assay [1] and in assay [2] were 4.23 and < 3.70, respectively. Turning to `O=C(O)c1cccc(N2C(=O)/C(=C/C3CCCCC3)SC2=S)c1`, the pIC50 in assay [1] is 5.14; in assay [2] it was < 3.70. With `O=C(O)Cc1ccc(N2C(=O)/C(=C/c3ccccc3)SC2=S)cc1`, the pIC50 was 4.70 in assay [1] and 4.00 in assay [2]. Turning to `O=C1/C(=C/c2ccccc2)SC(=S)N1c1ccccc1`, the pIC50 in assay [1] is < 3.70.

Regarding `COC(=O)c1ccc(N2C(=O)/C(=C/c3ccccc3)SC2=S)cc1`, the pIC50 in assay [1] was < 3.70. With `O=C(O)c1ccc(CN2C(=O)/C(=C/c3ccccc3)SC2=S)cc1`, the pIC50 in assay [1] was 4.22; in assay [2], < 3.70. With `O=C(O)c1cccc(N2C(=O)/C(=C/c3ccc(F)cc3)SC2=S)c1`, the pIC50 in assay [1] was 5.89; in assay [2], < 4.30. Consider `O=C(O)c1cccc(N2C(=O)/C(=C/c3ccc([N+](=O)[O-])cc3)SC2=S)c1`, for which the pIC50 is 5.59 in assay [1] and < 4.30 in assay [2]. As to `O=C(O)c1cccc(N2C(=O)/C(=C/c3ccccc3)SC2=S)c1` (stereo in doubt; 5m), the pIC50 in assay [1] was 5.18; in assay [2] it was < 4.00. For `O=C(O)c1cccc(N2C(=O)/C(=C/c3ccccc3)SC2=S)c1` (stereo in doubt; 5t), the pIC50 in assay [1] is 5.15; in assay [2], < 4.00.

The pIC50 is the IC50 on a negative log10 scale, so that one unit is a factor of ten. A low value points to a high IC50.
